Laboratory results as given in US12589099B2 (priority 2021, dated 2026).

Assays:
[1] = test system: Aspergillus brasiliensis (ATCC No. 16404); experiment: USP 51 Preservative Challenge Test; format: cell-based; settings: A. brasiliensis ATCC 16404; initial Log10 5.3
Description: (§1) In order to assess the anti-microbial properties of ALPHA-1062, the USP (US Pharmacopeia) Chapter 51 Preservative Challenge Test (USP 51) was employed. The USP 51 is a common method used to gauge preservative effectiveness. Much like a Preservative Challenge Screen, it is used to evaluate the effect of preservatives in cosmetics, personal care products, and drug products. Preservatives are typically antimicrobial ingredients that are added to aqueous product formulations to help maintain the safety of the product by inhibiting the growth and reducing the number of microbial contaminants.
(§2) In the context of the present invention, ALPHA-1062 (in the form of the gluconate salt) was assessed in place of (as) a preservative. No additional preservative was added to the ALPHA-1062 gluconate preparation, rather an anti-microbial effect of the agent itself (ALPHA-1062) was assessed. ALPHA-1062 is therefore the anti-microbial agent in the assay and experiments described below.
(§3) The USP 51 challenge test utilizes 5 microorganisms (3 bacteria and 2 fungi) for challenge testing. Each of the microorganisms are known strains of pathogenic microorganisms and they represent a wide range of microbial physiologies.
(§4) Cultures of the following microorganisms were applied, as per standard guidelines for USP 51: Candida albicans (ATCC No. 10231), Aspergillus brasiliensis (ATCC No. 16404), Escherichia coli (ATCC No. 8739), Pseudomonas aeruginosa (ATCC No. 9027), and Staphylococcus aureus (ATCC No. 6538).
(§5) The test was conducted in five sterile, capped bacteriological containers of suitable size into which a sufficient volume of product has been transferred. Each container was inoculated with one of the prepared and standardized inoculums and was mixed accordingly. The volume of the suspension inoculum used was between 0.5% and 1.0% of the volume of the product. The concentration of test microorganisms that was added to the product was such that the final concentration of the test preparation after inoculation was between 1×10^5 and 1×10^6 CFU per mL of the product, according to standard guidelines for Category 2 products.
(§6) The initial concentration of viable microorganisms in each test preparation was estimated based on the concentration of microorganisms in each of the standardized inoculums, as determined by the plate-count method.
(§7) The inoculated containers were incubated at 22.5±2.5° C. and each container was sampled at the appropriate intervals, as specified in Table 3. Any changes observed in the appearance of the culture was recorded at these intervals. By using the plate-count procedure, the number of CFU present in each test preparation was determined for the applicable intervals.
(§8) An inactivator (neutralizer) of the specific antimicrobial was incorporated in the plate count or in the appropriate dilution prepared for plating. These conditions were determined in the validation study for that sample based upon the conditions of media and microbial recovery incubation times listed in Table 2. Using the calculated concentrations of CFU per mL present at the start of the test, the change in log 10 values of the concentration of CFU per mL for each microorganism was calculated at the applicable test intervals, and the changes were expressed in terms of log reductions.
(§9) The USP Criteria for Category 2 were employed in order to determine the presence of an anti-microbial effect. For bacteria, an antimicrobial effect is evident when at least a 2.0 log reduction from the initial count is evident at 14 days and no increase is evident from the 14-day count at 28 days. For yeast and molds, an antimicrobial effect is evident when no increase from the initial calculated count is determined at 14 and 28 days.

[2] = test system: Candida albicans (ATCC No. 10231); experiment: USP 51 Preservative Challenge Test; format: cell-based; settings: C. albicans ATCC 10231
Description: as §1, §2, §3, §4, §5, §6, §7, §8, §9

[3] = test system: Escherichia coli (ATCC No. 8739); experiment: USP 51 Preservative Challenge Test; format: cell-based; settings: E. coli ATCC 8739
Description: as §1, §2, §3, §4, §5, §6, §7, §8, §9

[4] = test system: Pseudomonas aeruginosa (ATCC No. 9027); experiment: USP 51 Preservative Challenge Test; format: cell-based; settings: P. aeruginosa ATCC 9027
Description: as §1, §2, §3, §4, §5, §6, §7, §8, §9

[5] = test system: Staphylococcus aureus (ATCC No. 6538); experiment: USP 51 Preservative Challenge Test; format: cell-based; settings: S. aureus ATCC 6538
Description: as §1, §2, §3, §4, §5, §6, §7, §8, §9

[6] = test system: 5 microorganisms (3 bacteria and 2 fungi); experiment: USP 51 Preservative Challenge Test, overall assessment by USP Criteria for Category 2; format: cell-based; settings: 14 and 28 days
Description: as §1
as §2, with “below. […]” for “below.”
as §7, with “applicable intervals. […]” for “applicable intervals.”

[7] = 43% RH (RT), up to 5 days; cited from earlier work
[8] = initial 6.7 × 10^5 CFU/mL (Log10 5.8), 22.5±2.5° C., no additional preservative
[9] = initial 9.1 × 10^5 CFU/mL (Log10 6.0), 22.5±2.5° C., no additional preservative
[10] = initial 2.9 × 10^5 CFU/mL (Log10 5.5), 22.5±2.5° C., no additional preservative
[11] = initial 4.0 × 10^5 CFU/mL (Log10 5.6), 22.5±2.5° C., no additional preservative

| SMILES | Day 14 Log Reduction [1] | Day 28 Log Reduction [1] | Day 14 CFU/mL [2, 8] | Day 28 CFU/mL [2, 8] | Day 14 Log Reduction ([2]; initial Log10 5.8) | Day 28 Log Reduction ([2]; initial Log10 5.8) | Day 14 CFU/mL [3, 9] | Day 28 CFU/mL [3, 9] | Day 14 Log Reduction ([3]; initial Log10 6.0) | Day 28 Log Reduction ([3]; initial Log10 6.0) | Day 14 CFU/mL [4, 10] | Day 28 CFU/mL [4, 10] | Day 14 Log Reduction ([4]; initial Log10 5.5) | Day 28 Log Reduction ([4]; initial Log10 5.5) | Day 14 CFU/mL [5, 11] | Day 28 CFU/mL [5, 11] | Day 14 Log Reduction ([5]; initial Log10 5.6) | Day 28 Log Reduction ([5]; initial Log10 5.6) | anti-microbial effect against all 5 organisms tested in the USP 51 [6] | solid state stability of the crystalline form [7] |
| --- | --- | --- | --- | --- | --- | --- | --- | --- | --- | --- | --- | --- | --- | --- | --- | --- | --- | --- | --- | --- |
| COc1ccc2c3c1O[C@H]1C[C@@H](OC(=O)c4ccccc4)C=C[C@@]31CCN(C)C2 [ALPHA-1062 Gluconate] | 3.1 | 3.1 | <10 CFU/mL | <10 CFU/mL | 4.8 | 4.8 | <10 CFU/mL | <10 CFU/mL | 5.0 | 5.0 | <10 CFU/mL | <10 CFU/mL | 4.5 | 4.5 | <10 CFU/mL | <10 CFU/mL | 4.6 | 4.6 | strong anti-microbial effect |  |
| COc1ccc2c3c1O[C@H]1C[C@@H](OC(=O)c4ccccc4)C=C[C@@]31CCN(C)C2.O=C(O)C(O)C(O)C(O)C(O)CO [Form A] |  |  |  |  |  |  |  |  |  |  |  |  |  |  |  |  |  |  |  | kinetically stable |
